Laboratory results as given in patent US10954461B2, “Methods for preventing microbial growth and microbiologically influenced corrosion in a biodegradable and/or renewable fuel, hydraulic fluid and/or lubricant” (TRIBORON INTERNATIONAL AB, priority 2016, dated 2021).

Legend:
[1] = based on available in vitro data; SCCS opinion 2010; cited from earlier work
[2] = tested on: microbial growth; conditions: lowest tested concentration (1:2000, 44 ppm boric acid, 7.5 ppm boron); HVO and RME with lake water; initial results
Description: 20 samples were prepared, 10×50 g of each fuel type, HVO and RME respectively. For each fuel type, there were four boron concentrations and a reference. One of each concentration and fuel was placed in a heating chamber at 45° C. and in front of a window subjected to sunlight. Water was taken from a lake nearby and stored in the heat chamber for an amount of time to enhance microorganism content and activity. 15 g of lake water was added to each sample, and the contaminated samples stored one week in 45° C. and exposed to sunlight. A stable solution of inorganic boron in ethanol was added to each sample in different dilutions, corresponding to the theoretical concentrations in the samples shown in table 3: [table]

Which mutagenicity [1] does the source give for `OB(O)O` [boric acid] here?
Its mutagenicity is “non-mutagenic”.

And the “effect on microbial growth in contaminated samples” value [2]?
The value was “marked effect”.
